According to patent US20180296523A1, “USE OF POLYMETHOXYLATED FLAVONES TO AMELIORATE CIRCADIAN RHYTHM DISORDERS” (THE BOARD OF REGENTS OF THE UNIVERSITY OF TEXAS SY, priority 2017, published 2018):

System: db/db and db/db Clock^Δ19/Δ19 mice
Assay: db/db diabetic mice and db/db Clock^Δ19/Δ19 double-mutant mice
Assay type: in vivo, mouse
Protocol: Weekly body weight was monitored in different treatment mice for 10 weeks. Body mass composition was measured at the end of experiments using a minispec mqNMR spectrometer (Bruker Optics, Texas) (Garcia et al., 2013). A control group of mice were fed with regular chow diet (Purina 5001) in parallel with the two treatment groups in HFD. For db/db and db/db Clock^Δ19/Δ19 mice, male mice at 6-8 weeks of age were group-housed (2-3/cage) and maintained on regular chow diets. Mice were subjected to oral gavage with either DMSO or NOB as described above.
Serum samples were obtained at ZT2 from treated mice as previously described (Jeong et al., 2015). Hepatic triglyceride and cholesterol were extracted as previously described (Liu et al., 2012). The triglyceride and cholesterol levels in liver and serum were assessed by Serum Triglyceride Determination Kit (Sigma) and Cholesterol Assay Kit (Cayman), respectively. The assay plates were read by a TECAN M200 instrument (Tecan) following the manufacturer's instructions.
Glucose tolerance test (GTT) and insulin tolerance test (ITT) were performed largely as described (He et al., 2015; Jeong et al., 2015). Briefly, after overnight and 5-hr fasting, GTT and ITT were conducted at ZT2 and ZT8 respectively. Glucose levels were measured from tail blood before and 15, 30, 60, or 120 min after injection of either 1 g/kg glucose or 0.75 U/kg insulin (Sigma) at ZT2 and ZT8 respectively by using the ONETOUCH UltraMini blood glucose monitoring system (LifeScan). Serum insulin levels were measured with the Rat/Mouse Insulin Elisa kit (Millipore) according to the manufacturer's instructions. The plasma samples were collected at ZT2 as described above for lipid assays.

COc1ccc(-c2cc(=O)c3c(OC)c(OC)c(OC)c(OC)c3o2)cc1OC [nobiletin]
overall metabolic response to treatment (db/db Clock^Δ19/Δ19 double-mutant mice, in contrast to db/db): markedly attenuated response
circulating insulin levels (db/db Clock^Δ19/Δ19 mutant mice): strongly reduced circulating insulin levels
circulating insulin levels (db/db mice): strongly reduced circulating insulin levels
fasting glucose levels (db/db mice): lowered fasting glucose levels
glucose tolerance (GTT) (db/db mice): improved
insulin sensitivity (ITT) (db/db mice): improved
serum total cholesterol (TC) (db/db mice): reduced
serum total triglyceride (TG) (db/db mice): reduced
body weight gain (db/db mice, RC, 10 weeks): strongly blunted body weight gain
